Active and inactive are the calls of the source.
How the values were obtained:
Paired box protein Pax-8 = Paired box protein Pax-8 (Homo sapiens, UniProt Q06710); test: inhibitors of PAX8-driven TPO luciferase reporter, dose response, RMG-I cells, cherry-pick (AID 687027); assay type: functional, cell-based;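 note: luciferase reporter driven by Pax8 target thyroperoxidase promoter measured by SteadyGlo luminescence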
[1] = A2780 ovarian cancer cell cytotoxicity, dose response, cytotoxicity control, plate reader, dry powder samples (AID 743046); assay type: functional, cell-based
[2] = cytotoxicity in OVCAR8 ovarian cancer cells, dose response, PAX8 project, cell-based, plate reader, dry powder samples (AID 743197); assay type: functional; conditions: OVCAR-8
A549 = test: A549 cell toxicity, dose response, cytotoxicity control, plate reader, cherry-pick samples (AID 687028); assay type: functional, cell-based; conditions: Homo sapiens
[3] = molecular target: Eukaryotic translation initiation factor 4H (Homo sapiens, UniProt Q15056); test: human eIF4H binding inhibitors, primary screen, translation initiation inhibitor project, biochemical, uHTS, fluorescence polarization (AID 2012)
[4] = molecular target: Polyadenylate-binding protein 1 (Homo sapiens, UniProt P11940); test: PABP poly(A) RNA binding inhibitors, primary screen, biochemical, fluorescence polarization, uHTS (AID 2014)
Nonstructural protein 1 = Nonstructural protein 1 (Influenza A virus, UniProt Q194T2); assay type: functional, Influenza A virus (A/California/07/2009(H1N1))
Nonstructural protein 1, sequence (Q194T2 whole entry): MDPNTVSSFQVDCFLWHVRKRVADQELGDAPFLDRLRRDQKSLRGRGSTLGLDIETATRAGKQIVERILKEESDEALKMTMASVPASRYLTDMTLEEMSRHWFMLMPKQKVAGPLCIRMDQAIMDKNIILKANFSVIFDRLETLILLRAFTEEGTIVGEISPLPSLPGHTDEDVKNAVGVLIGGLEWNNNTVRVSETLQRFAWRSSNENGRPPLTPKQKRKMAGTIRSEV

Genome polyprotein = Genome polyprotein (dengue virus type 2, UniProt P29990); test: Dengue-2 NS5 methyltransferase inhibitors, primary screen, biochemical, confirmation dose response (AID 588689); assay type: functional
Genome polyprotein, sequence (P29990 2492-3391 limits assumed): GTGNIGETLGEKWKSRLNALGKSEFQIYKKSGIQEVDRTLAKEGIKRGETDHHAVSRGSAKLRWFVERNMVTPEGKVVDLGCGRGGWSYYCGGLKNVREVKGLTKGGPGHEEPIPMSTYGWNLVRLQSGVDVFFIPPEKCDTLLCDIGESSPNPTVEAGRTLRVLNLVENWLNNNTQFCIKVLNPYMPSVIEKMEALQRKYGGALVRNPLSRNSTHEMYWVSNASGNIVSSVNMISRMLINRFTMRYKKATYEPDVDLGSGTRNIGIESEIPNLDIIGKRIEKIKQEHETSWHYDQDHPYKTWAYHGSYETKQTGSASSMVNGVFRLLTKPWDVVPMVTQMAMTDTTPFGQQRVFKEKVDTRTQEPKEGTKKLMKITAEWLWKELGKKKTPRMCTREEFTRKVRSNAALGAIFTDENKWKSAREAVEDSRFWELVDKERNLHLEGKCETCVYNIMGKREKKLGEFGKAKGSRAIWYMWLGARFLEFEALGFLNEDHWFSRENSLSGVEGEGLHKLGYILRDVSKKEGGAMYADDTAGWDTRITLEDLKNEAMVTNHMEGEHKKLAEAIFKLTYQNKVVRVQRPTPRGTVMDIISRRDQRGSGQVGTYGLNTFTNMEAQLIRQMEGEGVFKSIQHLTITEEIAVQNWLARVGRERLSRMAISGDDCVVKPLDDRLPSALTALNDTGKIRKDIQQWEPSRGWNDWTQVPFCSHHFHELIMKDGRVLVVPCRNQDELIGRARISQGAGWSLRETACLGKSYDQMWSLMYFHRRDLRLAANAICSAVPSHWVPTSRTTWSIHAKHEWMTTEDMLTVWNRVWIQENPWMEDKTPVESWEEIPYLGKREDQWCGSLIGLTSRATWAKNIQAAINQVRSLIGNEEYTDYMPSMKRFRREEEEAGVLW

Protein skinhead-1 = molecular target: T1, Protein skinhead-1 (Caenorhabditis elegans, UniProt P34707); assay type: functional
T1 sequence (P34707 whole entry): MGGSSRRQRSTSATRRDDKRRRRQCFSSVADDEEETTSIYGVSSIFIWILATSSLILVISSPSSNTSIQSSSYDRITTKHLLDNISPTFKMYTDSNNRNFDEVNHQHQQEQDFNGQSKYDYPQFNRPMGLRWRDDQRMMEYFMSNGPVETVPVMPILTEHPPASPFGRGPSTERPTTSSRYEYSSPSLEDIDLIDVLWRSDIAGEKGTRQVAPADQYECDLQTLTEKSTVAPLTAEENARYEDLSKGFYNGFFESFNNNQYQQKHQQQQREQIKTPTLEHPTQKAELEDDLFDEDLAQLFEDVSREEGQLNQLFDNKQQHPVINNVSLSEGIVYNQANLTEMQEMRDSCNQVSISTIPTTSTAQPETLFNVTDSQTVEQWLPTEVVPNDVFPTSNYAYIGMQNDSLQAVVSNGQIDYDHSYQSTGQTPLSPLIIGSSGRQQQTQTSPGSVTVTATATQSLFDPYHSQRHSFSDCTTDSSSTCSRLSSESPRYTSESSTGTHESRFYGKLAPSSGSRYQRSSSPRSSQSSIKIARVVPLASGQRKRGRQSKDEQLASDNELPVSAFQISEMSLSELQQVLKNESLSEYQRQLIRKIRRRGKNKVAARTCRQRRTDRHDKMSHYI

[5] = HeLa cell cytotoxicity, dose response, cytotoxicity control for MgcRacGAP inhibitor project (AID 624300); assay type: functional
[6] = molecular target: T2, Rac GTPase-activating protein 1 (Homo sapiens, UniProt Q9H0H5); test: MgcRacGAP GTPase-activating activity inhibitors, confirmation, biochemical, ADP Hunter fluorescence, primary and confirmatory (AID 624330); assay type: functional
T2 sequence (Q9H0H5 whole entry): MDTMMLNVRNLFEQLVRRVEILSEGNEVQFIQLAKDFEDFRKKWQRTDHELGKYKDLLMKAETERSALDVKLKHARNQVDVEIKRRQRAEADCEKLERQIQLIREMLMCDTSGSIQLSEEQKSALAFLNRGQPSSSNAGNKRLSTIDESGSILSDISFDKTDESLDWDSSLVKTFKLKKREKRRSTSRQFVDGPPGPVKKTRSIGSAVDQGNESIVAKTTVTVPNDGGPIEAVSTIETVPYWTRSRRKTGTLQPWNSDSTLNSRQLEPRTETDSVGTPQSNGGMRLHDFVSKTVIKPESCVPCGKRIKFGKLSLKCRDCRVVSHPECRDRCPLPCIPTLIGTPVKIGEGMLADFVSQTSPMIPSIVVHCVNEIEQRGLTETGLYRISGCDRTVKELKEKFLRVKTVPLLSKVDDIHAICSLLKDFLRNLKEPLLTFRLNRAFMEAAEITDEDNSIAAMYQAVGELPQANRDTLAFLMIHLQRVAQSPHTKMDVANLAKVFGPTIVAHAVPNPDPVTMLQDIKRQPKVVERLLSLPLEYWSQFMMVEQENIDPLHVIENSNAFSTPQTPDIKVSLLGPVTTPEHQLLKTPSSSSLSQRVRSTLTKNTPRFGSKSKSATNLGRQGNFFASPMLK

[7] = molecular target: Matrix metalloproteinase-14 (Homo sapiens, UniProt P50281); test: Dose Response confirmation of uHTS hits for a small molecule inhibitors of MT1-MMP activation in a fluorescence assay set 1.; assay type: functional
[8] = molecular target: T3, Methionyl-tRNA synthetase, putative (Trypanosoma brucei brucei, UniProt Q38C91); assay type: functional, Trypanosoma brucei brucei strain 927/4 GUTat10.1
T3 sequence (Q38C91 whole entry): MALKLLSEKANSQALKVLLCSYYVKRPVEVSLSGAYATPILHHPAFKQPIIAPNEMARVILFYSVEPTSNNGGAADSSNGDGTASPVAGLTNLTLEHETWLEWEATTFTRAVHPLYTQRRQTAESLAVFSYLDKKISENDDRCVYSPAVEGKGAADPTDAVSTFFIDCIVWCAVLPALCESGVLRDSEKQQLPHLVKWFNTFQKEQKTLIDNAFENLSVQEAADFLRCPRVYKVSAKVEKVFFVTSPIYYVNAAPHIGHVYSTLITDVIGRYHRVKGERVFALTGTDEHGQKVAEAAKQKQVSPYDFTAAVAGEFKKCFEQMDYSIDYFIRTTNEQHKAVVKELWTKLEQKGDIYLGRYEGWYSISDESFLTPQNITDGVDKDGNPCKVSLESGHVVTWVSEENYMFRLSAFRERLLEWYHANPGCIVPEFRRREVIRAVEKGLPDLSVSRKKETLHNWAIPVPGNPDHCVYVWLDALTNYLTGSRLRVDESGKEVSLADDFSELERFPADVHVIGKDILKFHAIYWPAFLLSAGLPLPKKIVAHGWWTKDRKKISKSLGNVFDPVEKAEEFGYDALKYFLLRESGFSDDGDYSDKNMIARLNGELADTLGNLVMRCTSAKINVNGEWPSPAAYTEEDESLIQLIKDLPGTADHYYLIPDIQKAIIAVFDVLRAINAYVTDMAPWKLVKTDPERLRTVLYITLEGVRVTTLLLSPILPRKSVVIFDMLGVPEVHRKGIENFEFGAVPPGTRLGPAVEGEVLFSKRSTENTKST

[9] = Counterscreen for inhibitors of Trypanosoma brucei methionyl tRNA synthetase (MetRS): Luminescence-based cell-based high throughput dose response assay to identify compounds that are cytotoxic to Jurkat human T lymphocyte cells.; assay type: functional
[10] = molecular target: T3, Methionyl-tRNA synthetase, putative; assay type: functional, Trypanosoma brucei brucei strain 927/4 GUTat10.1; remark: listed apart in the source
[11] = Late stage counterscreen for inhibitors of Trypanosoma brucei methionyl tRNA synthetase (MetRS): Luminescence-based cell-based high throughput dose response assay to identify compounds that are cytotoxic to Jurkat human T lymphocyte cells.; assay type: functional
Protein Wnt-3a = Protein Wnt-3a (Mus musculus, UniProt P27467); test: SAR analysis of small molecule antagonists of Gli-SUFU in a Wnt3a luminescent reporter assay.; assay type: functional
Protein Wnt-3a, sequence (P27467 whole entry): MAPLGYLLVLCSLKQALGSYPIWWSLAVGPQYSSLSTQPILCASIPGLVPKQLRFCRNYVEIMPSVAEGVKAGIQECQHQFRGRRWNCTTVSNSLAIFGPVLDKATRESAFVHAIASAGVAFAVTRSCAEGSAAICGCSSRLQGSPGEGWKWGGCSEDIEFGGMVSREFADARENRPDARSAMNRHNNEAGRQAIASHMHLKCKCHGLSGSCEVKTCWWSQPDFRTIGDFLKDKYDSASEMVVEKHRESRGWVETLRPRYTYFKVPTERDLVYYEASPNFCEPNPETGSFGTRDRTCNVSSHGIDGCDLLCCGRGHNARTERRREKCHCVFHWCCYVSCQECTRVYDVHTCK

[12] = miR-122 activators in hepatoma reporter cells, dose response, cell-based, Huh7 psiCHECK-miR122, Renilla luciferase, cherry-picked (AID 651956); assay type: functional;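 note: huh7 hepatoma cells stably carrying a psiCHECK-2 miR-122 sensor plasmid; renilla luciferase signal reporting endogenous miR-122 activity after 48 h compound exposure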
[13] = HEK293T cytotoxicity, dose response, cytotoxicity control for miR-122 modulator project, cell-based, activator set, cherry-pick (AID 720690); assay type: functional;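 note: HEK293T human cells scored for general mammalian cytotoxicity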
[14] = molecular target: Histone-lysine N-methyltransferase NSD2 (Homo sapiens, UniProt O96028); assay type: biochemical
Histone-lysine N-methyltransferase NSD2, sequence (O96028 whole entry): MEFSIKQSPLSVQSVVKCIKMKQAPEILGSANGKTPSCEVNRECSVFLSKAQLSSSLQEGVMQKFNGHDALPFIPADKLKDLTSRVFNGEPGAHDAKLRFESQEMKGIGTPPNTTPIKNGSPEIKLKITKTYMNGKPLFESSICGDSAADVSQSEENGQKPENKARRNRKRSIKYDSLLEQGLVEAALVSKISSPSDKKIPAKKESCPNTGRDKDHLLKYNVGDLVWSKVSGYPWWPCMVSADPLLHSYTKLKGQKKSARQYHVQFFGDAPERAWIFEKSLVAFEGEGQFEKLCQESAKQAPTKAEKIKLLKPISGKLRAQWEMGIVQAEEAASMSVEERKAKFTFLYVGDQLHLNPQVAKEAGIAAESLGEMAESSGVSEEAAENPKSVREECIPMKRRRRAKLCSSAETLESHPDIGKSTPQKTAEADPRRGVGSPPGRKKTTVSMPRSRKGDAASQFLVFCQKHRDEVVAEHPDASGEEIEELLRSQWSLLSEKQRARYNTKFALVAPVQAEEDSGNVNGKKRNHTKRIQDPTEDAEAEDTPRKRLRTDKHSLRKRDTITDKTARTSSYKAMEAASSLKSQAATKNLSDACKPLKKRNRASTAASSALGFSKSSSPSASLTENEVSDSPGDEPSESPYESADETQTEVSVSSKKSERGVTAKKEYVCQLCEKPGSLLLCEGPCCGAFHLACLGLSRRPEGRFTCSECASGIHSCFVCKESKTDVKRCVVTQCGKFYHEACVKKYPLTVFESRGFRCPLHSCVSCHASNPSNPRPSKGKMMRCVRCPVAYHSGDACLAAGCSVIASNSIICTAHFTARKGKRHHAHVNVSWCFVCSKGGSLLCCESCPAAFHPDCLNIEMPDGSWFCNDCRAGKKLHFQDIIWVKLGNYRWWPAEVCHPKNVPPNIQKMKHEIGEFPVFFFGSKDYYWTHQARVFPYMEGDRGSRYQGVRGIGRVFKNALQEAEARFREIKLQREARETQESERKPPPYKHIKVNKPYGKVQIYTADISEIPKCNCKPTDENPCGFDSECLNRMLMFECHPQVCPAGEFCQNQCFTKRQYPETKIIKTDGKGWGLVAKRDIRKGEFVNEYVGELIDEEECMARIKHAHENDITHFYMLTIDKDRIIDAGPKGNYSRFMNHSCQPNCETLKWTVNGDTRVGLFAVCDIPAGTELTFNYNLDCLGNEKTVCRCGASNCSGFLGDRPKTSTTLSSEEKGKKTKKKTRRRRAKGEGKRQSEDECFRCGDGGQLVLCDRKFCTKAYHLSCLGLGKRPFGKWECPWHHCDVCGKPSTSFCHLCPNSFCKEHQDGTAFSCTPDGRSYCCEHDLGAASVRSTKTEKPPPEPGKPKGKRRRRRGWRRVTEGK

[15] = molecular target: Tyrosyl-DNA phosphodiesterase 2 (Homo sapiens, UniProt O95551); test: human TDP2 enzyme inhibitors, dose response, biochemical, epi absorbance, IC50 (AID 743297)
Tyrosyl-DNA phosphodiesterase 2, sequence (O95551 whole entry): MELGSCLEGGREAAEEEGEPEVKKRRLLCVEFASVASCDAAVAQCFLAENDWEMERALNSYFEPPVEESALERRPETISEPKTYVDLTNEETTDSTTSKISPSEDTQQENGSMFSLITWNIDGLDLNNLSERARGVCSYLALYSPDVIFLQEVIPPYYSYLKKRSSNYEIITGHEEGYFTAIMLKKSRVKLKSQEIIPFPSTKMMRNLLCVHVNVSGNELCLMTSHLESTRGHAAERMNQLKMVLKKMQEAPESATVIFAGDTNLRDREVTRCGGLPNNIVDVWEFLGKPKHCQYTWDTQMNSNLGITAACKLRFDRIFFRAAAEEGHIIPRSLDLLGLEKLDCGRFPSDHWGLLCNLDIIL

Beta-lactamase [16] = molecular target: Beta-lactamase (Salmonella choleraesuis (strain SC-B67), UniProt Q5J463); test: Epi-absorbance-based counterscreen for selective VIM-2 inhibitors: dose response biochemical high throughput screening assay to identify inhibitors of TEM-1 serine-beta-lactamase.
Beta-lactamase (Salmonella choleraesuis (strain SC-B67), UniProt Q5J463), sequence (Q5J463 whole entry): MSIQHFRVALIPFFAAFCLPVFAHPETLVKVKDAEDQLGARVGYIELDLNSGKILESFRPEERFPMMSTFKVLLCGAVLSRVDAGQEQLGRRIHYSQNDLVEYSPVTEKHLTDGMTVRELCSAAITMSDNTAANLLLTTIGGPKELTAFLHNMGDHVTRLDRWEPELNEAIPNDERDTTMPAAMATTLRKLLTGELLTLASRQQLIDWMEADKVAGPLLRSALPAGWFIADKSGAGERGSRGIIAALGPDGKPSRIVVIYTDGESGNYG

Beta-lactamase [17] = molecular target: T4, Beta-lactamase (Pseudomonas aeruginosa, UniProt Q79MP6); test: IMP-1 metallo-beta-lactamase inhibitors, dose response, selectivity assay for VIM-2 inhibitor project, biochemical, epi-absorbance (AID 1920)
T4 sequence (Q79MP6 whole entry): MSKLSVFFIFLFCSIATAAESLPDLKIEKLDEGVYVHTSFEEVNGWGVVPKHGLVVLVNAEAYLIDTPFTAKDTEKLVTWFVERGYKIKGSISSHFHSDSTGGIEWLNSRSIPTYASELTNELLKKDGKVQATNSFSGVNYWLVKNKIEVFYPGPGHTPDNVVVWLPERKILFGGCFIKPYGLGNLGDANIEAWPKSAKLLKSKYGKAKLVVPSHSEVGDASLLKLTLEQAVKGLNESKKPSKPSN

Beta-lactamase [18] = molecular target: T4, Beta-lactamase; test: […] counterscreen for selective VIM-2 inhibitors: dose response biochemical high throughput screening assay to identify inhibitors of IMP-1 metallo-beta-lactamase.

Paired box protein Pax-8, sequence (Q06710 whole entry): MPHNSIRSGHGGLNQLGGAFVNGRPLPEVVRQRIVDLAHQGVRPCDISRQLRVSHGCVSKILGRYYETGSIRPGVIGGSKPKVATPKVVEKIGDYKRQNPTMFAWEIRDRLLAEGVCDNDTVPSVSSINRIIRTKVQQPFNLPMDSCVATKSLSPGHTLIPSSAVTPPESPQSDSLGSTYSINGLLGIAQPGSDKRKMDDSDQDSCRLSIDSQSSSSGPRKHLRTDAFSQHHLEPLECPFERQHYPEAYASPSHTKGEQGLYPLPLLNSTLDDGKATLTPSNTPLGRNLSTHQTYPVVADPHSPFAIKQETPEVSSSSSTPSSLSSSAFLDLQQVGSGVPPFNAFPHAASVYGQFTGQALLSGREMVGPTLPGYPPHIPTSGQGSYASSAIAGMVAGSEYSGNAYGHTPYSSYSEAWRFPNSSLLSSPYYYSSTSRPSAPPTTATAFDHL

For `C[C@H](CO)N1C[C@H](C)[C@@H](CN(C)Cc2ccc(Cl)c(Cl)c2)OCCCC[C@H](C)Oc2ccc(NS(=O)(=O)c3ccc(Cl)cc3)cc2C1=O`, the AC50 (Paired box protein Pax-8) was 11.5 µM (active), the AC50 [1] was 4.46 µM (active) and the AC50 [2] was > 70 µM (inactive).
With `C[C@H](CO)N1C[C@H](C)[C@@H](CN(C)C(=O)Nc2ccc(C(F)(F)F)cc2)OCCCC[C@H](C)Oc2ccc(NC(=O)C3CCCCC3)cc2C1=O` the AC50 (A549) was 30.5 µM (active).
In the case of `CC1=C/C(=C(/c2cc(C)c(O)c(Br)c2)c2ccccc2S(=O)(=O)O)C=C(Br)C1=O`, the IC50 [3] is reported as 8.28 µM (active), the IC50 [4] is reported as 6.81 µM (active) and the IC50 (Nonstructural protein 1) is reported as 16.3 µM (active). The IC50 (Genome polyprotein) was 38 µM (active), the IC50 (Protein skinhead-1) was 34.3 µM (active) and the CC50 [5] was 100 µM (active). The IC50 [6] was 63.5 µM (active) and the IC50 [7] was 18.5 µM (active).
In the case of `O=C(NCc1nc2ccccc2[nH]1)C1=C[C@@H](c2ccccc2)C[C@@H](OCc2ccc(CO)cc2)O1`, the IC50 [8] is reported as 2.08 µM (active), the IC50 [9] is reported as 81 µM (inactive) and the IC50 [10] is reported as 0.835 µM (active). For the same compound, the IC50 [11] was > 83.3 µM (inactive).
For `CN(C)c1cc(NC(=O)c2ccccc2F)ncn1`, the IC50 (Protein Wnt-3a) was > 21.8 µM (inactive).
In the case of `CCC(=O)N(C)C[C@H]1Oc2cc(C#Cc3ccccc3)ccc2S(=O)(=O)N([C@H](C)CO)C[C@H]1C`, the AC50 [12] is reported as 10.1 µM (active) and the AC50 [13] is reported as 30.6 µM (active).
In the case of `O=C1C=C(O)c2nc(O)ccc2C1=O`, the AC50 [14] is reported as 13.1 µM (active) and the IC50 [15] is reported as 80 µM (inactive).
For `CCCCc1cc(=O)oc2c3c(cc(OCC(=O)N4CCC[C@H]4C(=O)O)c12)OC(C)(C)CC3`, the IC50 (Beta-lactamase [16]) was > 59.6 µM (inactive), the IC50 (Beta-lactamase [17]) was > 59.6 µM (inactive) and the IC50 (Beta-lactamase [18]) was > 59.6 µM (inactive).

From ChEMBL document CHEMBL1201862, “PubChem BioAssay data set” (2004)
